Assay results published in PMC9525908, “α-Crystallin chaperone mimetic drugs inhibit lens γ-crystallin aggregation: Potential role for cataract prevention” (The Journal of Biological Chemistry, 2022).
Read-outs that look alike come from different tables or passages of the source.

What was measured:
Bovine γ-crystallins = assay: Thermal aggregation (72 °C) turbidity assay, bovine γ-crystallins (pool 4); assay type: biochemical; conditions: for Thermal denaturation inhibitory activity in subscreen: 150 μM; for Thermal denaturation inhibitory activity in subscreen / % Suppression: 72 °C 20 min; for % Suppression: 75 μM protein, 125 μM or less inhibitor (1.7:1); for Effect on BGC aggregation at lower protein concentrations / Effect on absorbance of BGC at 2.0 mg/ml: 400 μM drug, 72 °C, 10 and 20 min
Description: Candidate compounds were rescreened using thermal denaturation upon heating at 72 °C for 20 min according to Chen et al. ([36]) in order to select for compounds with chaperone rather than antioxidant activity since a large number of the latter already exist in the cataract field ([37]).
For a review, see the study by Roskamp et al. ([38]). […] For the mechanistic studies below these two compounds together with either drug M, chosen mostly as negative control, or the entire set of six compounds were used for comparison purpose, whereby the words “drug” or “compound” are used interchangeably in the studies later.
All assays were carried out manually in CORNING #9017 Costar Assay 96-well plates. Wells were filled with 90 μl calf γ-crystallin-rich protein solution (pool 4 at 2 mg/ml) followed by 0.5 to 5.0 μl of drug (all 10 mM stock solution in DMSO) as supplied by the manufacturer and 10 μl H2O2 (450 mM stock solution in water) and sealed with sticky Applied Biosystems MicroAmp Clear Adhesive films (Life Technologies). Control wells received DMSO only. Plates were shaken for 2 min and incubated from 24 to 72 h in a culture room at 37 °C. […] A second reading was performed following a heat shock of 20 min at 72 °C as described by Chen et al. ([36]) in order to capture drugs with heat-resistant chaperone activity. In order to quantitate the impact of the drugs on aggregation, a fitness plot was created (Fig. 1 C) that allowed us to identify wells with enhanced/worsening versus suppressed crystallin aggregation. In addition, aggregation in each well was also visually assessed by two independent “blinded” readers for the ability to read fine print through each well by placing the plates over small font text (Fig. 1D). Both machine and visual readouts were reconciled in order to increase robustness.
(§1) Final DMSO concentration was 5% including in control samples. Microtiter plates were first incubated for 10 min at 72 °C and reincubated for 10 more min. Absorbance was measured at both 10 and 20 min total incubation time.

HγD = target: T1, HγD (Homo sapiens, UniProt P07320); assay: Thermal aggregation (72 °C) turbidity assay, recombinant HγD; assay type: biochemical; conditions: for inhibition at 125 µM / Effect on HγD at 2.0 mg/ml and 20 min: 20 min; for inhibition at 125 µM: 75 μM protein, 125 μM or less inhibitor (1.7:1); for Effect on HγD aggregation at low protein / Effect on HγD at 2.0 mg/ml and 20 min: 72 °C
T1 construct: made in house; host or cells: E. coli BL21(DE3) pLysS, pET3d vector
T1 sequence (P07320 1-174): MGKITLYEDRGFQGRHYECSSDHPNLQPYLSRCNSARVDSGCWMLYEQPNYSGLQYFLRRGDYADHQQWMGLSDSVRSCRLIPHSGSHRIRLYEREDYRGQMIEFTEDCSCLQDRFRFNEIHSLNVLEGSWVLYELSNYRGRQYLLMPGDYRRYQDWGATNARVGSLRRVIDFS
Description: For refinement of the aforementioned screen, these compounds were tested at concentrations varying from 50 to 500 μM and 1.5 mg/ml concentration of recombinant HγD, human gamma S (HγS), its deamidation mutants γS_N14, γS_N76, γS_N143 and its triple mutant γSTM (Fig. 1F). In addition, other drugs and compounds that tested positive in the initial screen were also included, such as escin (E), hematein (I), citric acid (CA), docusate sodium (DS), and sennoside A (S) (Fig. S1B). […] For a review, see the study by Roskamp et al. ([38]). […] Thus, drug C and drug G emerged as the strongest antidenaturation/aggregation and potential anticataract drugs. For the mechanistic studies below these two compounds together with either drug M, chosen mostly as negative control, or the entire set of six compounds were used for comparison purpose, whereby the words “drug” or “compound” are used interchangeably in the studies later.
For end-point assays, HγD and MγS (1 mg/ml, 100 μl) in 50 mM K3PO4 buffer (pH 7.2) in set of triplicates in transparent flat bottom 96-well plates were heated at 72 °C for 20 min in the presence and absence of selected drugs at varying concentrations. Absorbance was measured at 600 nm with a SpectraMax iD5 (Molecular Devices).
HγD protein (2.5 mg/ml buffer A) was incubated at 72 °C for 20 min without or with 100 or 400 μM drug G or C in buffer A. Final DMSO concentration was 5% in all samples. […] Therefore, samples with and without 400 μM drug G were chosen for identification of drug G-induced miscleavage sites upon digestion with 25:1 protein:trypsin ratio (sequencing grade modified trypsin; Promega) in buffer A. After 4 h, samples were frozen at −80 °C until processed for determination of miscleavage sites using proteomics analysis. LC–MS/MS analysis was performed on an Orbitrap Eclipse mass spectrometer (Thermo Fisher Scientific) coupled with a Waters nanoAcquity UPLC system (Waters) in total 90 min run using a linear gradient range from 0 to 42% solvent B (0.1% formic acid in acetonitrile) versus solvent A (0.1% formic acid in water) at a flow rate of 300 nl/min. MS1 full mass spectra were acquired in the Orbitrap mass analyzer at the resolution of 120 K. MS/MS tandem mass spectra were generated in the ion trap mass analyzer by collision-induced dissociation of peptide ions at a normalized collision energy of 35%. The resulting MS/MS spectra were searched against human gamma D protein database using Mass Matrix software (MassMatrix, Inc) with the mass errors of 10 ppm and 0.8 Da for MS1 and MS/MS scans, respectively. The oxidation of methionine was set for variable modifications, and three miscleavages were allowed for the search.
as §1

WT-HγD = target: T2, WT-HγD (Homo sapiens, UniProt P07320); assay: bis-ANS binding study, WT-HγD; conditions: 10 μM protein, 100 μM drug; read-out: Percent inhibition of binding of bis-ANS, WT-HγD
T2 construct: made in house; host or cells: E. coli BL21(DE3) pLysS, pET3d vector
T2 sequence (P07320 1-174): T1 sequence (P07320 1-174)
Description: (§2) Extrinsic fluorescence spectra were recorded using bis-ANS, a well-known surface hydrophobicity probe. The spectra were recorded between 400 and 600 nm after exciting at 390 nm. The experiment was performed on 10 μM of HγD and MγS in 50 mM K3PO4 buffer with and without our candidate drugs (100 μM). Bis-ANS stock solution was prepared in methanol whose final percentage was maintained below 7 after mixing with proteins ([81]).

OPJ-MγS = target: T3, OPJ-MγS (Mus musculus, UniProt O35486, F10S); assay: bis-ANS binding study, OPJ-MγS; conditions: 10 μM protein, 100 μM drug; read-out: Percent inhibition of binding of bis-ANS, OPJ-MγS
T3 construct: made in house; host or cells: E. coli BL21(DE3) pLysS, pET17b vector
T3 sequence (O35486 1-178 F10S): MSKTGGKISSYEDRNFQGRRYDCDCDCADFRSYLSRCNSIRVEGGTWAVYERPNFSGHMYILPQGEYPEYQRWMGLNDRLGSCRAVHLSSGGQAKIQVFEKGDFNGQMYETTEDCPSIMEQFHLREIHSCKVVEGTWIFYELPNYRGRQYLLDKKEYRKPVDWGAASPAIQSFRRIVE
Description: as §2

[1] = Bovine γ-crystallins experiment 1
[2] = Bovine γ-crystallins experiment 2
[3] = HγD experiment 1, 72 °C 20 min, read-out: % Suppression
[4] = HγD experiment 2, 72 °C 20 min, read-out: % Suppression
[5] = read-out: % Suppression, HγD experiment 1, 72 °C 20 min
[6] = read-out: % Suppression, HγD experiment 2, 72 °C 20 min

| Structure (SMILES) | Thermal denaturation inhibitory activity in subscreen (Bovine γ-crystallins) | % Suppression (Bovine γ-crystallins; [1]) [%] | % Suppression (Bovine γ-crystallins; [2]) [%] | inhibition at 125 µM (HγD; [3]) [%] | inhibition at 125 µM (HγD; [4]) [%] | inhibition at 100 µM (WT-HγD) [%] | inhibition at 100 µM (OPJ-MγS) [%] | Effect on BGC aggregation at lower protein concentrations (Bovine γ-crystallins) | Effect on absorbance of BGC at 2.0 mg/ml (Bovine γ-crystallins) | Effect on HγD aggregation at low protein (HγD; 400 μM drug) | Effect on HγD at 2.0 mg/ml and 20 min (HγD; 400 μM drug) | inhibition at 125 µM (HγD; [5]) [%] | inhibition at 125 µM (HγD; [6]) [%] | Turbidity suppression (HγD; HγD 2.5 mg/ml, 400 μM drug, 72 °C 20 min, 5% DMSO) |
| --- | --- | --- | --- | --- | --- | --- | --- | --- | --- | --- | --- | --- | --- | --- |
| COC(=O)/C=C/C(C)=C\C=C\C(C)=C\C=C\C=C(C)\C=C\C=C(C)\C=C\C(=O)O [drug B, Bixin] | thermal denaturation inhibitory activity | 23 | 54 | 63 | 60 | 27.86 ± 0.0009 | 11.83 ± 0.00091 | – | – | – | – | – | – | – |
| Cc1cc(C(C#N)c2ccc(Cl)cc2)c(Cl)cc1NC(=O)c1cc(I)cc(I)c1O (stereo not drawn) [drug C, Closantel] | thermal denaturation inhibitory activity | 60 | 73 | – | – | 43.82 ± 0.0012 | 20.28 ± 0.00089 | stimulated aggregation | reproducibly suppressed absorbance | worsened HγD aggregation | no baseline change | 65 | 73 | – |
| CC(C)=CCCC1(C)C=Cc2c(O)c3c(c(CC=C(C)C)c2O1)OC12C(=CC4CC1C(C)(C)OC2(C/C=C(/C)C(=O)O)C4O)C3=O (stereo not drawn) [drug D, dihydrogambogic acid] | thermal denaturation inhibitory activity | 40 | 44 | – | – | 34.5 ± 0.0006 | 7.76 ± 0.00097 | – | – | – | – | 66 | 78 | – |
| CC(C)=CCC[C@]1(C)C=Cc2c(O)c3c(c(CC=C(C)C)c2O1)O[C@]12C(=C[C@@H]4C[C@H]1C(C)(C)O[C@@]2(C/C=C(/C)C(=O)O)C4=O)C3=O [drug G, Gambogic acid] | thermal denaturation inhibitory activity | 48 | 75 | – | – | 44.64 ± 0.0011 | 31.62 ± 0.00057 | stimulated aggregation | reproducibly suppressed absorbance | worsened HγD aggregation | no baseline change | 69 | 75 | markedly suppressed turbidity |
| O=C(O)CCCCCCCCCCCC[C@@H]1C=CCC1 [drug M, Chaulmoogric acid] | thermal denaturation inhibitory activity | 40 | 16 | 38 | 73 | 4.28 ± 0.0003 | 3.48 ± 0.001 | – | – | – | – | – | – | – |
| Oc1c(Cl)cc(Cl)c(Cl)c1Cc1c(O)c(Cl)cc(Cl)c1Cl [drug X, Hexachlorophene] | thermal denaturation inhibitory activity | 30 | 55 | 61 | 47 | 15.16 ± 0.001 | 2.45 ± 0.00075 | – | – | – | – | – | – | – |
